Measured values from BindingDB's records for doi:10.1016/S0960-894X(97)00406-X (1997).
Counter-ions that a name gives are not always drawn.

Assay: Compound was evaluated for the inhibition of Opioid receptor delta 1 binding to guinea pig brain membranes, using 0.2 nM [3H]naltrindole as radioligand

| SMILES | Ki |
| --- | --- |
| CN(C(=O)Cc1ccc(Cl)c(Cl)c1)[C@@H](CN1CCCC1)c1cccc(NC(=S)Nc2ccc(-c3c4ccc(=O)cc-4oc4cc(O)ccc34)c(C(=O)O)c2)c1 [5-{3-[3-((R)-1-{[2-(3,4-Dichloro-phenyl)-acetyl]-methyl-amino}-2-pyrrolidin-1-yl-ethyl)-phenyl]-thioureido}-2-(6-hydroxy-3-oxo-3H-xanthen-9-yl)-benzoic acid] | 86 nM |
| CN(C(=O)Cc1ccc(Cl)c(Cl)c1)[C@H](CN1CCCC1)c1cccc(NC(=S)Nc2ccc(-c3c4ccc(=O)cc-4oc4cc(O)ccc34)c(C(=O)O)c2)c1 [5-{3-[3-((S)-1-{[2-(3,4-Dichloro-phenyl)-acetyl]-methyl-amino}-2-pyrrolidin-1-yl-ethyl)-phenyl]-thioureido}-2-(6-hydroxy-3-oxo-3H-xanthen-9-yl)-benzoic acid] | 0.898 nM |
| CN(C(=O)Cc1ccc(Cl)c(Cl)c1)C(CN1CCCC1)c1cccc(NC(=S)Nc2ccc(-c3c4ccc(=O)cc-4oc4cc(O)ccc34)c(C(=O)O)c2)c1 (stereo not given) [5-{3-[3-(1-{[2-(3,4-Dichloro-phenyl)-acetyl]-methyl-amino}-2-pyrrolidin-1-yl-ethyl)-phenyl]-thioureido}-2-(6-hydroxy-3-oxo-3H-xanthen-9-yl)-benzoic acid] | 1.8 nM |
| CC(=O)Nc1cccc([C@@H](CN2CCCC2)N(C)C(=O)Cc2ccc(Cl)c(Cl)c2)c1 [N-[(S)-1-(3-Acetylamino-phenyl)-2-pyrrolidin-1-yl-ethyl]-2-(3,4-dichloro-phenyl)-N-methyl-acetamide; hydrochloride] | 14 nM |
| CC(=O)Nc1cccc([C@H](CN2CCCC2)N(C)C(=O)Cc2ccc(Cl)c(Cl)c2)c1 [N-[(R)-1-(3-Acetylamino-phenyl)-2-pyrrolidin-1-yl-ethyl]-2-(3,4-dichloro-phenyl)-N-methyl-acetamide; hydrochloride] | 3070 nM |
